Results published in the NIST ThermoML archive (doi:10.1016/j.tca.2016.08.006).
Several values for one entry are separate records, joined by “and”; a condition that tells them apart may be missing. Identical values can stand only once.

Legend:
[1] = 101.33 kPa, Crystal, Vacuum adiabatic calorimetry
[2] = molar heat capacity at constant pressure; settings: 101.33 kPa, Crystal, Vacuum adiabatic calorimetry

[S-2].[Zn+2] [zinc sulfide]
Settings	molar entropy, [1] [J/K/mol]	molar heat capacity at constant pressure, [2]
1 K	3.1e-05	0.000119 J/K/mol
2 K	0.00031	0.000958 J/K/mol
4 K	0.002561	0.007765 J/K/mol
6 K	0.00879	0.02685 J/K/mol
8 K	0.0213	0.06618 J/K/mol
10 K	0.043	0.1376 J/K/mol
12 K	0.078	0.2601 J/K/mol
13.23 K	–	0.1984 J/K/mol
14 K	0.1317	0.4569 J/K/mol
16 K	0.2106	0.7475 J/K/mol
16.01 K	–	0.5445 J/K/mol
17.97 K	–	1.025 J/K/mol
18 K	0.3203	1.14 J/K/mol
19.61 K	–	1.553 J/K/mol
20 K	0.4649	1.628 J/K/mol
21.54 K	–	2.093 J/K/mol
23.46 K	–	2.68 J/K/mol
25 K	0.987	3.17 J/K/mol
25.99 K	–	3.508 J/K/mol
28.89 K	–	4.52 J/K/mol
30 K	1.72	4.941 J/K/mol
31.66 K	–	5.487 J/K/mol
34.78 K	–	6.6 J/K/mol
35 K	2.617	6.734 J/K/mol
37.93 K	–	7.702 J/K/mol
40 K	3.629	8.454 J/K/mol
41.05 K	–	8.761 J/K/mol
44.22 K	–	9.788 J/K/mol
45 K	4.72	10.08 J/K/mol
47.06 K	–	10.71 J/K/mol
50 K	5.863	11.63 J/K/mol
51.43 K	–	12.16 J/K/mol
53.49 K	–	12.83 J/K/mol
55 K	7.041	13.11 J/K/mol
55.51 K	–	13.31 J/K/mol
57.5 K	–	14 J/K/mol
59.41 K	–	14.51 J/K/mol
60 K	8.244	14.56 J/K/mol
61.72 K	–	15.17 J/K/mol
64.45 K	–	15.93 J/K/mol
65 K	9.466	15.99 J/K/mol
67.18 K	–	16.76 J/K/mol
69.7 K	–	17.39 J/K/mol
70 K	10.7	17.39 J/K/mol
72.52 K	–	18.2 J/K/mol
75 K	11.95	18.77 J/K/mol
75.26 K	–	18.97 J/K/mol
77.99 K	–	19.74 J/K/mol
80 K	13.2	20.13 J/K/mol
80.73 K	–	20.47 J/K/mol
83.59 K	–	21.24 J/K/mol
85 K	14.47	21.46 J/K/mol
86.48 K	–	22.17 J/K/mol
90 K	15.73	22.77 J/K/mol
91.62 K	–	23.27 J/K/mol
95 K	16.99	24.03 J/K/mol
95.13 K	–	24.19 J/K/mol
98.85 K	–	25.12 J/K/mol
100 K	18.26	25.25 J/K/mol
102.42 K	–	26.14 J/K/mol
106.06 K	–	26.79 J/K/mol
109.93 K	–	27.68 J/K/mol
110 K	20.77	27.55 J/K/mol
113.87 K	–	28.52 J/K/mol
117.79 K	–	29.35 J/K/mol
120 K	23.26	29.66 J/K/mol
121.86 K	–	30.17 J/K/mol
125.61 K	–	30.87 J/K/mol
129.43 K	–	31.59 J/K/mol
130 K	25.71	31.58 J/K/mol
133.29 K	–	32.28 J/K/mol
137.15 K	–	32.9 J/K/mol
140 K	28.12	33.3 J/K/mol
141.04 K	–	33.52 J/K/mol
144.93 K	–	34.17 J/K/mol
149.88 K	–	35.06 J/K/mol
150 K	30.47	34.85 J/K/mol
155.67 K	–	35.74 J/K/mol
159.17 K	–	36.12 J/K/mol
160 K	32.76	36.24 J/K/mol
164 K	–	36.77 J/K/mol
168.93 K	–	37.35 J/K/mol
170 K	35	37.49 J/K/mol
173.91 K	–	37.96 J/K/mol
178.77 K	–	38.48 J/K/mol
180 K	37.17	38.6 J/K/mol
184.05 K	–	38.9 J/K/mol
189.4 K	–	39.43 J/K/mol
190 K	39.29	39.6 J/K/mol
194.4 K	–	39.95 J/K/mol
199.39 K	–	40.39 J/K/mol
200 K	41.34	40.5 J/K/mol
204.53 K	–	40.77 J/K/mol
209.77 K	–	41.2 J/K/mol
210 K	43.34	41.32 J/K/mol
214.65 K	–	41.55 J/K/mol
219.66 K	–	41.93 J/K/mol
220 K	45.28	42.05 J/K/mol
224.69 K	–	42.27 J/K/mol
230 K	47.16	42.62 J/K/mol and 42.72 J/K/mol
235.27 K	–	42.91 J/K/mol
240 K	48.99	43.32 J/K/mol
240.27 K	–	43.24 J/K/mol
245.33 K	–	43.69 J/K/mol
250 K	50.77	43.88 J/K/mol
250.45 K	–	43.78 J/K/mol
258.21 K	–	44.25 J/K/mol
260 K	52.5	44.38 J/K/mol
263.65 K	–	44.4 J/K/mol
269.02 K	–	44.71 J/K/mol
270 K	54.19	44.84 J/K/mol
274.56 K	–	44.99 J/K/mol
280 K	55.83	45.27 J/K/mol
280.13 K	–	45.24 J/K/mol
285.72 K	–	45.48 J/K/mol
290 K	57.42	45.66 J/K/mol
291.19 K	–	45.73 J/K/mol
297.09 K	–	45.7 J/K/mol
300 K	58.98	46.03 J/K/mol
304.72 K	–	46.14 J/K/mol
310 K	60.49	46.36 J/K/mol
312.85 K	–	46.5 J/K/mol
320 K	61.97	46.68 J/K/mol
